Laboratory results taken from ChEMBL document CHEMBL4840324, “Bioassay-Guided Isolation of an Abetiane-Type Diterpenoid from Prunella vulgaris That Protects against Concanavalin A-Induced Autoimmune Hepatitis” (J Nat Prod, 2021).
The source made the active and inactive calls. The rule behind the calls is not given here.

Legend:
[1] = tested on: Splenocyte; assay: Immunosuppressive activity against anti-CD3/anti-CD28 stimulated C57BL/6J mouse splenocytes assessed as reduction of IFN-gamma secretion at 0.625 to 2.5 uM; format: functional, cell-based; conditions: dose 0.625-2.5 µM
[2] = tested on: Mus musculus; assay: Hepatoprotective activity against ConA-induced hepatitis in C57BL/6J mouse assessed as suppression of CD3+ T cells infiltration expression at 10 mg/kg, ip administered for 2 days by TUNEL staining based assay; format: functional, organism-based; conditions: time 2.0 day
[3] = tested on: Splenocyte; assay: Inhibition of ConA-stimulated IL-6 production in C57BL/6J mouse splenocytes at 0.156 to 1.25 uM; format: functional, cell-based; conditions: dose 0.156-1.25 µM
[4] = tested on: Splenocyte; assay: Immunosuppressive activity in C57BL/6J mouse splenocytes assessed as inhibition of ConA-induced splenocytes proliferation at 1.25 uM measured after 72 hrs by CellTrace Violet staining based flow cytometric analysis (reference value: 63.9 %); format: functional; parameters: scale not given: the % may be the effect or the level left
[5] = tested on: PBMC; assay: Immunosuppressive activity against anti-CD3/anti-CD28 stimulated human PBMCs assessed as reduction of IL-10 secretion at 0.625 to 2.5 uM; format: functional, tissue-based; conditions: dose 0.625-2.5 µM
[6] = tested on: Mus musculus; assay: Hepatoprotective activity against ConA-induced hepatitis in C57BL/6J mouse assessed as suppression of AST level at 10 mg/kg, ip administered for 3 days by automatic analyzer; format: functional, organism-based; conditions: time 3.0 day
[7] = tested on: Splenocyte; assay: Immunosuppressive activity in C57BL/6J mouse splenocytes assessed as inhibition of ConA-induced splenocytes proliferation at 0.625 uM measured after 72 hrs by CellTrace Violet staining based flow cytometric analysis (reference value: 63.9 %); format: functional; parameters: scale not given: the % may be the effect or the level left
[8] = tested on: Splenocyte; assay: Inhibition of ConA-stimulated TNFalpha production in C57BL/6J mouse splenocytes at 0.156 to 1.25 uM; format: functional, cell-based; conditions: dose 0.156-1.25 µM
[9] = tested on: Splenocyte; assay: Immunosuppressive activity against anti-CD3/anti-CD28 stimulated C57BL/6J mouse splenocytes assessed as reduction of IL-17 secretion at 0.625 to 2.5 uM; format: functional, cell-based; conditions: dose 0.625-2.5 µM
[10] = tested on: Splenocyte; assay: Immunosuppressive activity against anti-CD3/anti-CD28 stimulated C57BL/6J mouse splenocytes assessed as reduction of IL-10 secretion at 0.625 to 2.5 uM; format: functional, cell-based; conditions: dose 0.625-2.5 µM
[11] = tested on: Splenocyte; assay: Immunosuppressive activity against anti-CD3/anti-CD28 stimulated C57BL/6J mouse splenocytes assessed as reduction of IL-4 secretion at 0.625 to 2.5 uM; format: functional, cell-based; conditions: dose 0.625-2.5 µM
[12] = tested on: Splenocyte; assay: Inhibition of ConA-stimulated IL-2 production in C57BL/6J mouse splenocytes at 0.156 to 1.25 uM; format: functional, cell-based; conditions: dose 0.156-1.25 µM
[13] = tested on: Splenocyte; assay: Immunosuppressive activity in C57BL/6J mouse splenocytes assessed as inhibition of ConA-induced splenocytes proliferation at 0.3125 uM measured after 72 hrs by CellTrace Violet staining based flow cytometric analysis (reference value: 63.9 %); format: functional; parameters: scale not given: the % may be the effect or the level left
[14] = tested on: PBMC; assay: Immunosuppressive activity against anti-CD3/anti-CD28 stimulated human PBMCs assessed as reduction of TNFalpha secretion at 0.625 to 2.5 uM; format: functional, tissue-based; conditions: dose 0.625-2.5 µM
[15] = tested on: Mus musculus; assay: Hepatoprotective activity against ConA-induced hepatitis in C57BL/6J mouse assessed as effect on FAS expression at 10 mg/kg, ip administered for 2 days by TUNEL staining based assay; format: functional, organism-based; conditions: time 2.0 day
[16] = tested on: Mus musculus; assay: Hepatoprotective activity against ConA-induced hepatitis in C57BL/6J mouse assessed as effect on BCL2 expression at 10 mg/kg, ip administered for 2 days by TUNEL staining based assay; format: functional, organism-based; conditions: time 2.0 day
[17] = tested on: Splenocyte; assay: Immunosuppressive activity in C57BL/6J mouse splenocytes assessed as inhibition of anti-CD3/anti-CD28 induced T-cell proliferation at 0.3125 uM for 72 hrs by CellTrace Violet staining based flow cytometric analysis (reference value: 78.4 %); format: functional; parameters: scale not given: the % may be the effect or the level left
[18] = tested on: Splenocyte; assay: Immunosuppressive activity in C57BL/6J mouse splenocytes assessed as inhibition of anti-CD3/anti-CD28 induced T-cell proliferation at 0.625 uM for 72 hrs by CellTrace Violet staining based flow cytometric analysis (reference value: 78.4 %); format: functional; parameters: scale not given: the % may be the effect or the level left
[19] = tested on: Splenocyte; assay: Immunosuppressive activity in C57BL/6J mouse splenocytes assessed as inhibition of anti-CD3/anti-CD28 induced T-cell proliferation at 1.25 uM for 72 hrs by CellTrace Violet staining based flow cytometric analysis (reference value: 78.4 %); format: functional; parameters: scale not given: the % may be the effect or the level left
[20] = tested on: Splenocyte; assay: Immunosuppressive activity in C57BL/6J mouse splenocytes assessed as inhibition of ConA-induced splenocytes proliferation at 0.156 uM measured after 72 hrs by CellTrace Violet staining based flow cytometric analysis (reference value: 63.9 %); format: functional; parameters: scale not given: the % may be the effect or the level left
[21] = tested on: Splenocyte; assay: Immunosuppressive activity against anti-CD3/anti-CD28 stimulated C57BL/6J mouse splenocytes assessed as reduction of IL-6 secretion at 0.625 to 2.5 uM; format: functional, cell-based; conditions: dose 0.625-2.5 µM
[22] = tested on: Mus musculus; assay: Hepatoprotective activity against ConA-induced hepatitis in C57BL/6J mouse assessed as suppression of ALT level at 10 mg/kg, ip administered for 3 days by automatic analyzer; format: functional, organism-based; conditions: time 3.0 day
[23] = tested on: Mus musculus; assay: Hepatoprotective activity against ConA-induced hepatitis in C57BL/6J mouse assessed as suppression of LDH level at 10 mg/kg, ip administered for 3 days by automatic analyzer; format: functional, organism-based; conditions: time 3.0 day
[24] = tested on: PBMC; assay: Immunosuppressive activity against anti-CD3/anti-CD28 stimulated human PBMCs assessed as reduction of IL-6 secretion at 0.625 to 2.5 uM; format: functional, tissue-based; conditions: dose 0.625-2.5 µM
[25] = tested on: Splenocyte; assay: Immunosuppressive activity in C57BL/6J mouse splenocytes assessed as inhibition of anti-CD3/anti-CD28 induced T-cell proliferation at 2.5 uM for 72 hrs by CellTrace Violet staining based flow cytometric analysis (reference value: 78.4 %); format: functional; parameters: scale not given: the % may be the effect or the level left
[26] = Immunosuppressive activity in human PBMCs assessed as inhibition of anti-CD3/anti-CD28 induced T-cell proliferation at 0.625 uM for 72 hrs by CellTrace Violet staining based flow cytometric analysis (reference value: 63.3 %); format: functional, PBMC; parameters: scale not given: the % may be the effect or the level left
[27] = Immunosuppressive activity in human PBMCs assessed as inhibition of anti-CD3/anti-CD28 induced T-cell proliferation at 2.5 uM for 72 hrs by CellTrace Violet staining based flow cytometric analysis (reference value: 63.3 %); format: functional, PBMC; parameters: scale not given: the % may be the effect or the level left
[28] = tested on: Splenocyte; assay: Immunosuppressive activity against anti-CD3/anti-CD28 stimulated C57BL/6J mouse splenocytes assessed as reduction of TNFalpha secretion at 0.625 to 2.5 uM; format: functional, cell-based; conditions: dose 0.625-2.5 µM
[29] = tested on: Splenocyte; assay: Inhibition of ConA-stimulated IFNgamma production in C57BL/6J mouse splenocytes at 0.156 to 1.25 uM; format: functional, cell-based; conditions: dose 0.156-1.25 µM
[30] = Hepatotoxicity in C57BL/6J mouse at 10 mg/kg, ip administered for 3 days by hematoxylin and eosin staining based immunohistochemical analysis; format: toxicity, organism-based; conditions: in vivo, 72 h, time 3 day
[31] = Immunosuppressive activity in human PBMCs assessed as inhibition of anti-CD3/anti-CD28 induced T-cell proliferation at 0.3125 uM for 72 hrs by CellTrace Violet staining based flow cytometric analysis (reference value: 63.3 %); format: functional, PBMC; parameters: scale not given: the % may be the effect or the level left
[32] = Immunosuppressive activity in human PBMCs assessed as inhibition of anti-CD3/anti-CD28 induced T-cell proliferation at 1.25 uM for 72 hrs by CellTrace Violet staining based flow cytometric analysis (reference value: 63.3 %); format: functional, PBMC; parameters: scale not given: the % may be the effect or the level left
[33] = tested on: Mus musculus; assay: Hepatoprotective activity against ConA-induced hepatitis in C57BL/6J mouse assessed as effect on cleaved caspase 3 expression at 10 mg/kg, ip administered for 2 days by TUNEL staining based assay; format: functional, organism-based; conditions: time 2.0 day
[34] = tested on: PBMC; assay: Immunosuppressive activity against anti-CD3/anti-CD28 stimulated human PBMCs assessed as reduction of IFN-gamma secretion at 0.625 to 2.5 uM; format: functional, tissue-based; conditions: dose 0.625-2.5 µM

In the case of `COC1=C(C(C)C)C(=O)[C@]23O[C@@]2(C1=O)[C@@]1(C)CC[C@H](O)C(C)(C)[C@@H]1CC3=O`, the Activity [1] is reported as “Active”, the Activity [2] is reported as “Active” and the inhibition [3] is reported as “Active”. The Activity [4] was 10.8%, the Activity [5] was “Active” and the Activity [6] was “Active”. The Activity [7] was 29.9%, the inhibition [8] was “Active” and the Activity [9] was “Active”. The Activity [10] was “Active”, the Activity [11] was “Active” and the inhibition [12] was “Active”. The Activity [13] was 42.2%, the Activity [14] was “Active” and the Activity [15] was “inactive”. For the same compound, the Activity [16] was “inactive”, the Activity [17] was 70.2% and the Activity [18] was 68.8%. For the same compound, the Activity [19] was 7.39%, the Activity [20] was 51.1% and the Activity [21] was “Active”. For the same compound, the Activity [22] was “Active”, the Activity [23] was “Active” and the Activity [24] was “Active”. The Activity [25] was 5.48%, the Activity [26] was 56.4% and the Activity [27] was 8.24%. For the same compound, the Activity [28] was “Active”, the inhibition [29] was “Active” and the Activity [30] was “Non-Toxic”. The Activity [31] was 61.3%, the Activity [32] was 24.9% and the Activity [33] was “inactive”. For the same compound, the Activity [34] was “Active”.
